The target in data set [1] is Mitogen-activated protein kinase 8 (Homo sapiens, UniProt P45983). As to the kind of experiment: Inhibition of JNK1-mediated ATF2 phosphorylation after 1 hr by ELISA. In general terms: ELISA stands for enzyme-linked immunosorbent assay.
Data set [2] has as its system A549. The data set can be described thus: Antiproliferative activity against human A549 cells after 72 hrs by WST8 assay. Format: functional, cell-based. As to conditions: A549, 72 h.
Data set [3] has as its system A549. As to the kind of experiment: Antitumor activity against human A549 cells xenografted in po dosed BALB/cA Jcl-nu/nu mouse assessed as tumor growth inhibition administered QD for 19 days. The data set is classed as functional, organism-based. In general terms: Xenograft models place foreign cells or tissue in a host animal.
Data set [4] is described as follows: AUC in mouse at 25 mg/kg, po. The data set is classed as ADME, organism-based. To be noted: plasma. Details: dose 25 mg/kg, route oral.
The target of data set [5] is Receptor-type tyrosine-protein kinase FLT3 (Homo sapiens) (UniProt P36888). The data set can be described thus: Inhibition of FLT3 at 1 uM.
The test system of data set [6] is A549. As to the kind of experiment: Antitumor activity against human A549 cells xenografted in BALB/cA Jcl-nu/nu mouse assessed as tumor growth inhibition at 100 mg/kg, po administered QD for 19 days relative to vehicle-treated control. As to conditions: 456 h, read-out: TGI.
Data set [7] can be described thus: Cmax in mouse at 25 mg/kg, po. Format: ADME, organism-based. Details: dose 25 mg/kg, route oral. As to conditions: in vivo.
Data set [8] in a line: Tmax in mouse at 25 mg/kg, po. Format: ADME, organism-based. Details: dose 25 mg/kg, route oral. As to conditions: in vivo.
Another data set relates to Mus musculus. The data set can be described thus: Toxicity in BALB/cA Jcl-nu/nu mouse xenografted with human A549 cells assessed as body weight loss at 100 mg/kg, po administered QD for 19 days. As to conditions: in vivo, 456 h. The data set is classed as organism-based. Details: dose 100 mg/kg, route oral.
Data set [9] has as its system T1, Receptor-type tyrosine-protein kinase FLT3 (Homo sapiens), P36888 [D835Y].
T1 sequence (whole entry): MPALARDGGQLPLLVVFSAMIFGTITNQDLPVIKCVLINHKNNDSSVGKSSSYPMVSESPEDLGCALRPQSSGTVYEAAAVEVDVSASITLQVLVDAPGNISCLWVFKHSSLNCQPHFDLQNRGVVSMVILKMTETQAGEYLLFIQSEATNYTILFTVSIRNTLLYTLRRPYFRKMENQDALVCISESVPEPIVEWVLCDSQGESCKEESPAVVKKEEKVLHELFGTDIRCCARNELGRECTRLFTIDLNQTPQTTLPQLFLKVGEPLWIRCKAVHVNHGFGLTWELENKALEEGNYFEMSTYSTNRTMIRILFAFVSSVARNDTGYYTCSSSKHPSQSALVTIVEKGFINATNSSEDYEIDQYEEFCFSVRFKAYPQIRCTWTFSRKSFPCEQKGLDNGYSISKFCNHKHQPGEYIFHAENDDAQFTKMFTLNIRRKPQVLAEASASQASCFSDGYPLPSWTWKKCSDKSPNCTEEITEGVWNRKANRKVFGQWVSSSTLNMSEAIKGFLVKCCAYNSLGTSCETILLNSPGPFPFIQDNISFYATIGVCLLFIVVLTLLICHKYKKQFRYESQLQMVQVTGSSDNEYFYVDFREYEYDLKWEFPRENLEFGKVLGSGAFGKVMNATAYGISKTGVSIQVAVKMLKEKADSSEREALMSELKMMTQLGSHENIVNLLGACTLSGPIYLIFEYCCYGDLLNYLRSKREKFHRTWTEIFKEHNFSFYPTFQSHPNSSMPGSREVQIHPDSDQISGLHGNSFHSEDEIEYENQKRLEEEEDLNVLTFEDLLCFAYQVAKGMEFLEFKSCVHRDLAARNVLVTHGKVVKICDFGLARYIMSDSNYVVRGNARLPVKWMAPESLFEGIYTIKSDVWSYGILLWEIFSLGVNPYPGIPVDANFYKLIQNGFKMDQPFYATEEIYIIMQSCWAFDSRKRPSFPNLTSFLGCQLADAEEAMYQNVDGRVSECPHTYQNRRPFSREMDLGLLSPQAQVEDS
As to the kind of experiment: Inhibition of FLT3 D835Y mutant at 1 uM.

Sequence of Mitogen-activated protein kinase 8 (P45983 whole entry): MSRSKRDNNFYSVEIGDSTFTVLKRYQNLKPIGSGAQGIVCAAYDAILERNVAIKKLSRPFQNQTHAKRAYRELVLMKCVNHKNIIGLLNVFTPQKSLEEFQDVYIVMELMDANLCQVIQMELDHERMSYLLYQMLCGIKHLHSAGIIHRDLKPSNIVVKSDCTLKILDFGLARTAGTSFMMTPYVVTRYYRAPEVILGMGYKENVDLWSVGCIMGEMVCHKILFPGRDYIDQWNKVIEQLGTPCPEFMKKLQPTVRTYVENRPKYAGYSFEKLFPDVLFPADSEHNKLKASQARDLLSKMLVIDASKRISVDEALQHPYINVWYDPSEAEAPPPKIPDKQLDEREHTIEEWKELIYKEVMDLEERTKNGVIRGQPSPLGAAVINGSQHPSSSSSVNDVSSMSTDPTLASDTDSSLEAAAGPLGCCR

The term IC50 denotes the concentration that inhibits the measured activity by half. Lower therefore signals higher potency. Compound `CCOc1nc(NC(=O)Cc2ccccc2)cc(N)c1C#N` returned an IC50 in data set [1] of 260 nM.
On the same count and under the same terms, the value for `CCOc1nc(C(=O)NCc2ccccc2)cc(N)c1C#N` was 350 nM.
Consider `CCOc1nc(Nc2ccc(C(N)=O)cc2)cc(N)c1C#N`, for which the IC50 was 190 nM in data set [1] and 9500 nM with A549 [2].
As to `CCOc1nc(NCCc2ccccc2)cc(N)c1C#N`, in data set [1], the IC50 was greater than 100000 nM.
As a reminder, the AUC is concentration integrated over time. Higher therefore signals high exposure. A word on the inhibition: it is the share of the control response that was lost under treatment. A word on the Cmax: it is the highest concentration seen after dosing. Usually Tmax stands for the time from dosing to the highest level. For `CC(C)(C)Nc1nc(Nc2ccc(C(N)=O)cc2)cc(N)c1C#N`, the TGI result in the data set on A549 [3] is “Dose-dependent effect”. In addition, the AUC in data set [4] is 6600 ng·h/mL. Further, the inhibition in [5] came out at 50%; in data set [9], 86%. Besides, the IC50 in data set [1] amounted to 231 nM; with A549 [2], 840 nM. The inhibition in vivo at 100 mg/kg in the data set on A549 [6] came to 47%. In data set [7], this compound registered a Cmax of 3540 ng/mL. In addition, the Tmax in data set [8] was 15 min. Further, the Activity entry in the data set on Mus musculus was “Non-toxic”.
`CCOc1nc(Nc2ccccc2)cc(N)c1C#N` displayed a 50% inhibitory concentration (IC50) in data set [1] of 1040 nM.

The values are drawn from ChEMBL document CHEMBL2086293, “Diaminopyridine-based potent and selective mps1 kinase inhibitors binding to an unusual flipped-Peptide conformation” (ACS Med Chem Lett, 2012).
